Assays:
D3 receptor = D3 receptor (Homo sapiens (Human), UniProt P35462); test: Radioligand binding ([3H]-spiperone) to cloned D3 receptor expressed in HEK-293 EBNA cells; conditions: HEK293 EBNA membranes, 0.5 nM [3H]-spiperone
Procedure: (§1) HEK293 EBNA cells were transiently transfected with expression plasmids encoding for the human D2 or D3 or for the human 5-HT2A receptor, respectively. The cells were harvested 48 h post-transfection, washed three times with cold PBS and stored at −80° C. prior to use. The pellet was suspended in cold 50 mM Tris-HCl buffer containing 10 mM EDTA (pH 7.4) and was homogenized with a Polytron (Kinematica AG, Basel, Switzerland) for 20-30 sec at 12.000 rpm. After centrifugation at 48.000×g for 30 min at 4° C., the pellet was resuspended in cold 10 mM Tris-HCl buffer containing 0.1 mM EDTA (pH 7.4), homogenized, and centrifuged as above. This pellet was further resuspended in a smaller volume of ice cold 10 mM Tris-HCl buffer containing 0.1 mM EDTA (pH 7.4) and homogenized with a Polytron for 20-30 sec at 12.000 rpm. The protein content of this homogenate was determined with the Bio-Rad (Bradford) Protein Assay (Biorad Laboratories GmbH, München, Germany) according to the instructions of the manufacturer using gamma globulin as the standard. This homogenate was stored at −80° C. in aliquots and thawed immediately prior to use.
(§2) Radioligand Binding Assay
(§3) Aliquots of membrane preparations were thawed at RT, resupended in assay buffer (D2, D3: 50 mM Tris-HCl, 120 mM NaCl, 5 mM MgCl2, 1 mM EDTA, 5 mM KCl, 1.5 mM CaCl2, pH=7.4; 5-HT2A: 50 mM Tris-HCl, 10 mM MgCl2, 1 mM EGTA, pH=7.4), homogenized with a Polytron for 20-30 sec at 12.000 rpm and adjusted to a final concentration of approximately 7.5 μg protein/well (D2, D3) and 15 μg protein/well (5-HT2A), respectively.
The binding affinity (Ki) of the compounds was determined using radioligand binding. […] At the end of the incubation, the reaction mixtures were filtered on to unifilter 96-well white microplates with bonded GF/C filters (Packard BioScience, Zürich, Switzerland; preincubated for 1 h in 0.1% polyethylenimine (PEI) in assay buffer) with a Filtermate 196 harvester (Packard BioScience) and washed 3 times with cold assay buffer. The nonspecific binding was determined with equally composed reaction mixtures in the presence of 10 μM unlabelled spiperone. Per well 45 μl of Microscint 40 (Perkin Elmer, Schwerzenbach, Switzerland) was added, plates for sealed, shaken for 20 min and counted for 3 min on a Topcount Microplate Scintillation Counter (Canberra Packard SA, Zürich, Switzerland) with quenching correction.
(§4) The CPM value for each duplicate of a concentration of competing compound was averaged (y1), then the % specific binding was calculated according to the equation (((y1−non-specific)/(total binding−non-specific))×100). Graphs were plotted with the % specific binding using XLfit, a curve fitting program that iteratively plots the data using Levenberg-Marquardt algorithm. The single site competition analysis equation used was y=A+((B−A)/(1+((x/C)D))), where y is the % specific binding, A is the minimum y, B is the maximum y, C is the IC50, x is the log 10 of the concentration of the competing compound and D is the slope of the curve (the Hill Coefficient). […] The affinity constant (Ki) was calculated using the Cheng-Prusoff equation Ki=(IC50/1+([L]/Kd), where [L] is the concentration of radioligand and Kd is the dissociation constant of the radioligand at the receptor as determined by the saturation isotherm.

D2 receptor = D2 receptor (Homo sapiens (Human), UniProt P14416); test: Radioligand binding ([3H]-spiperone) to cloned D2 receptor expressed in HEK-293 EBNA cells; conditions: HEK293 EBNA membranes, 0.7 nM [3H]-spiperone
Procedure: as §1, §2, §3
The binding affinity (Ki) of the compounds was determined using radioligand binding. […] The nonspecific binding was determined with equally composed reaction mixtures in the presence of 10 μM unlabelled spiperone. Per well 45 μl of Microscint 40 (Perkin Elmer, Schwerzenbach, Switzerland) was added, plates for sealed, shaken for 20 min and counted for 3 min on a Topcount Microplate Scintillation Counter (Canberra Packard SA, Zürich, Switzerland) with quenching correction.
as §4

Sequence of D3 receptor (P35462 whole entry): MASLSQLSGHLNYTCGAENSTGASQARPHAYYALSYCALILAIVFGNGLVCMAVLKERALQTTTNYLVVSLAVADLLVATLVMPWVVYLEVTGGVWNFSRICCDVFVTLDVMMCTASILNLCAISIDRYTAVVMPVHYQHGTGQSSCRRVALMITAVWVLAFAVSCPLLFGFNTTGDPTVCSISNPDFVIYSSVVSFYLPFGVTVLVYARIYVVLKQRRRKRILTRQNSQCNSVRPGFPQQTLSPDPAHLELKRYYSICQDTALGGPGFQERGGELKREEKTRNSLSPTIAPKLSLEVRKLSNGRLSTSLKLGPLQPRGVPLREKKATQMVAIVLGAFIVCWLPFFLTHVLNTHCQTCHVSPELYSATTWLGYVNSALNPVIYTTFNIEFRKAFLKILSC
Sequence of D2 receptor (P14416 whole entry): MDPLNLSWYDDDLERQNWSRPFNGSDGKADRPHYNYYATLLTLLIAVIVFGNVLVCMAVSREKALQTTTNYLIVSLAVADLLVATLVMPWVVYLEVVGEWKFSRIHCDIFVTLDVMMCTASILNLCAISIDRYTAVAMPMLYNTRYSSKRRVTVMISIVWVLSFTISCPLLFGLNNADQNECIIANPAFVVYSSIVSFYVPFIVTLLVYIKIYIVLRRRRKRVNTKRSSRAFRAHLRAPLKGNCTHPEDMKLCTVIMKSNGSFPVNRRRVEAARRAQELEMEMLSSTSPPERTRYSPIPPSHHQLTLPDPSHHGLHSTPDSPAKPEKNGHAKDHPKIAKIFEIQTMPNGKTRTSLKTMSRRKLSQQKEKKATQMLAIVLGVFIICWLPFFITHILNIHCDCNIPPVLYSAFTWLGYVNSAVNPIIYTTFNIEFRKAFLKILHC

Ki (D3 receptor) | Ki (D2 receptor) | SMILES
11 nM | 124 nM | O=C(N[C@H]1CC[C@H](CCN2CCN(c3cccc4c3OCO4)CC2)CC1)C1(O)CCCC1 [Example 36, 1-Hydroxy-cyclopentanecarboxylic acid-trans-N-{4-[2-(4-benzo[1,3]dioxol-4-yl-piperazin-1-yl)-ethyl]-cyclohexyl}-amide]
11.2 nM | 30.4 nM | CN(C)C(=O)N[C@H]1CC[C@H](CCN2CCN(c3cccc4c3OCO4)CC2)CC1 [Example 72, N-trans-3-{4-[2-(4-Benzo[1,3]dioxol-4-yl-piperazin-1-yl)-ethyl]-cyclohexyl}-1,1-dimethyl-urea]
1.88 nM | 61.5 nM | O=C(N[C@H]1CC[C@H](CCN2CCN(c3cccc4c3OCO4)CC2)CC1)C1(O)CC1 [Example 29, Trans-1-Hydroxy-cyclopropanecarboxylic acid {4-[2-(4-benzo[1,3]dioxol-4-yl-piperazin-1-yl)-ethyl]-cyclohexyl}-amide]
6.28 nM | 97.2 nM | [2H]C1([2H])Oc2cccc(N3CCN(CC[C@H]4CC[C@H](NC(=O)C(C)(C)O)CC4)CC3)c2O1 [Example 81, N-trans-{4-[2-(4-Benzo(2,2-D2)-[1,3]dioxol-4-yl-piperazin-1-yl)-ethyl]-cyclohexyl}-2-hydroxy-2-methyl-propionamide]
4.91 nM | 113 nM | O=C(N[C@H]1CC[C@H](CCN2CCN(c3cccc4c3OCO4)CC2)CC1)C(F)(F)F [Example 70, N-trans-{4-[2-(4-Benzo[1,3]dioxol-4-yl-piperazin-1-yl)-ethyl]-cyclohexyl}-2,2,2-trifluoro-acetamide]
1.57 nM | 91.2 nM | O=C(CC(F)(F)F)N[C@H]1CC[C@H](CCN2CCN(c3cccc4c3OCO4)CC2)CC1 [Example 16, Trans-N-{4-[2-(4-Benzo[1,3]dioxol-4-yl-piperazin-1-yl)-ethyl]-cyclohexyl}-3,3,3-trifluoro-propionamide]
21.4 nM | 250 nM | COC(C)C(=O)N[C@H]1CC[C@H](CCN2CCN(c3cccc4c3OCO4)CC2)CC1 (stereo in doubt) [Example 25, Trans(S)—N-{4-[2-(4-Benzo[1,3]dioxol-4-yl-piperazin-1-yl)-ethyl]-cyclohexyl}-2-methoxy-propionamide]
1.15 nM | 67.3 nM | CC(=O)N[C@H]1CC[C@H](CCN2CCN(c3cccc4c3OCO4)CC2)CC1 [Example 1, Trans-N-{4-[2-(4-Benzo[1,3]dioxol-4-yl-piperazin-1-yl)-ethyl]-cyclohexyl}-acetamide]
3.1 nM | 145 nM | CS(=O)(=O)N[C@H]1CC[C@H](CCN2CCN(c3cccc4c3OCO4)CC2)CC1 [Example 34, Trans-N-{4-[2-(4-Benzo[1,3]dioxol-4-yl-piperazin-1-yl)-ethyl]-cyclohexyl}-methanesulfonamide]
27.4 nM | 117 nM | COC(C)(C)C(=O)N[C@H]1CC[C@H](CCN2CCN(c3cccc4c3OCO4)CC2)CC1 [Example 63, Trans-N-{4-[2-(4-Benzo[1,3]dioxol-4-yl-piperazin-1-yl)-ethyl]-cyclohexyl}-2-methoxy-2-methyl-propionamide]
1.88 nM | 73.8 nM | O=S(=O)(CC(F)(F)F)N[C@H]1CC[C@H](CCN2CCN(c3cccc4c3OCO4)CC2)CC1 [Example 66, 2,2,2-Trifluoro-ethanesulfonic acid-trans-N-{4-[2-(4-benzo[1,3]dioxol-4-yl-piperazin-1-yl)-ethyl]-cyclohexyl}-amide]
2.98 nM | 81.1 nM | O=C(N[C@H]1CC[C@H](CCN2CCN(c3cccc4c3OCO4)CC2)CC1)C1CC(Cl)C1 (stereo partly drawn) [Example 60, 3-Chloro-cyclobutanecarboxylic acid-trans-N-{4-[2-(4-benzo[1,3]dioxol-4-yl-piperazin-1-yl)-ethyl]-cyclohexyl}-amide]
2.28 nM | 133 nM | CC(C)CC(=O)N[C@H]1CC[C@H](CCN2CCN(c3cccc4c3OCO4)CC2)CC1 [Example 18, Trans-N-{4-[2-(4-Benzo[1,3]dioxol-4-yl-piperazin-1-yl)-ethyl]-cyclohexyl}-3-methyl-butyramide]
